This is an account of results in patent US11478461B2, “[1.1.1] bicyclo compounds as indoleamine 2,3-dioxygenase inhibitors” (Merck Sharp & Dohme Corp., priority 2018, dated 2022).

The assay has as its target IDO1 (Homo sapiens, UniProt P14902). The experiment in a line: IDO1 Cellular Assay in Hela Cells Stimulated with IFNγ. The class given is cell-based. The conditions noted are these: IFNγ 100 ng/mL, 300 uM L-tryptophan, about 48 hours, fluorescence readout, read-out: IDO1 HELA Cell Assay, IC50. The procedure:
Biological Assays IDO1 Cellular Assay in Hela Cells Stimulated with IFNγ
Hela cells were cultured in complete Hela culture medium ([…], 10% heat-inactivated fetal bovine serum) and expanded to about 1×10^9 cells. The cells were then collected and frozen down at 10×10^6 cells/vial in 1 mL frozen medium (90% complete Hela culture medium, 10% DMSO).
Compounds to be tested were serially diluted in ten 3-fold steps in DMSO starting from 10 mM DMSO stocks in Echo low volume plate(s). Compound dilutions or DMSO alone were then dispensed from the dilution plate(s) into Greiner black 384-well assay plate(s) (catalog #781086, 50 nL/well) using an Echo 550 acoustic liquid handler (Labcyte).
Frozen Hela cells were thawed and transferred into Hela assay medium (99% complete Hela culture medium, 1% Pen/Strep) with 20 mL medium/vial of cells. The cells were spun down at 250 g in a table top centrifuge for 5 min and suspended in same volume of Hela assay medium. […] Sterile L-tryptophan were added to the cells with final concentration of 300 uM L-tryptophan. A small aliquot (2 mL/plate) of Hela cells were set aside and were not treated with IFNγ, to serve as the Max-E control. The rest of Hela cells were added with sterile IFNγ (Cat #285-IF, R & D systems) with a final concentration of 100 ng/mL.
Hela cells with and without IFNγ were dispensed to the respective wells of 384-well assay plates containing the compounds. The plates were incubated for about 48 hours at a 37° C., 5% CO2 incubator. Afterwards, 12 μL of 0.5 M methyl isonipecotate in dimethyl sulfoxide were added into each well and the plates were sealed and incubated at 37° C. without CO2 overnight. The plates were centrifuged for 1 min at 200×g. The resulting fluorescence was measured in a Spectramax plate reader (Molecular Devices) with a 400 nm excitation filter and a 510 nm emission filter.
Potencies were calculated by […] least squares fit to the four parameter logistic IC50 equation.

Sequence of IDO1 (P14902 whole entry): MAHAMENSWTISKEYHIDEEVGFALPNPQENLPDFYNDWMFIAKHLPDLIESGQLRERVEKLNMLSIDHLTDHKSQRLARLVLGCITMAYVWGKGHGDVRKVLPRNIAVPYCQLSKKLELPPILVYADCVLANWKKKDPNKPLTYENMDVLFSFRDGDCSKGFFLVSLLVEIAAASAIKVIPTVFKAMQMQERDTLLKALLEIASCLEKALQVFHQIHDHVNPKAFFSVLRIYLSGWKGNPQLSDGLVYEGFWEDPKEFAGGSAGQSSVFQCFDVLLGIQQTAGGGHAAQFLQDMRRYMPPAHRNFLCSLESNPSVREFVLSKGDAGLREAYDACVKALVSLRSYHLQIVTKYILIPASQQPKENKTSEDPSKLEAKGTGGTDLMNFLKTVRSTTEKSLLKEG

For `C[C@H](C(=O)Nc1ccc(C(F)(F)F)cc1)C12CC(NC(=O)c3ccc(Cl)c(Cl)c3)(C1)C2` [Example 98, (S)-3,4-dichloro-N-(3-(1-oxo-1-((4-(trifluoromethyl)phenyl)amino)propan-2-yl)bicyclo[1.1.1]pentan-1-yl)benzamide], the IC50 came to 23.2 nM.

`O=C(NC1(C23CC(NC(=O)c4nc(C5CC5)no4)(C2)C3)CC1)c1ccc(F)cc1` [Example 29, 3-cyclopropyl-N-(3-(1-(4-fluorobenzamido)cyclopropyl)bicyclo[1.1.1]pentan-1-yl)-1,2,4-oxadiazole-5-carboxamide]: the IC50 stood at 276 nM.

`C[C@H](C(=O)Nc1ccc(F)cc1)C12CC(NC(=O)c3cnc(Cl)c(Cl)c3)(C1)C2` [Example 63, 5,6-dichloro-N-[3-[(1S)-2-(4-fluoroanilino)-1-methyl-2-oxo-ethyl]-1-bicyclo[1.1.1]pentanyl]pyridin-1-ium-3-carboxamide]: the IC50 is 11.4 nM.

As for `C[C@H](C(=O)Nc1ccc(F)cc1)C12CC(NC(=O)c3cccc(C(F)(F)F)c3)(C1)C2` [Example 62, N-[3-[(1S)-2-(4-fluoroanilino)-1-methyl-2-oxo-ethyl]-1-bicyclo[1.1.1]pentanyl]-3-(trifluoromethyl)benzamide], the IC50 came out at 30.9 nM.

Turning to `Cc1c(Cl)cccc1C(=O)NC12CC([C@H](C)C(=O)Nc3ccc(F)cc3)(C1)C2` [Example 53, 3-chloro-N-[3-[(1S)-2-(4-fluoroanilino)-1-methyl-2-oxo-ethyl]-1-bicyclo[1.1.1]pentanyl]-2-methyl-benzamide], the IC50 was found to be 123 nM.

Consider `Cc1ccnc(C(=O)NC23CC([C@H](C)C(=O)Nc4ccc(F)cc4)(C2)C3)n1` [Example 57, N-[3-[(1S)-2-(4-fluoroanilino)-1-methyl-2-oxo-ethyl]-1-bicyclo[1.1.1]pentanyl]-4-methyl-pyrimidin-1-ium-2-carboxamide], for which the IC50 worked out at 15.7 nM.

As to `CC(C(=O)Nc1ccc(F)cc1)C12CC(NC(=O)c3cc(Cl)ccn3)(C1)C2` (stereo not shown) [Example 112, 4-chloro-N-[3-[2-(4-fluoroanilino)-1-methyl-2-oxo-ethyl]-1-bicyclo[1.1.1]pentanyl]pyridin-1-ium-2-carboxamide], the IC50 was 40.4 nM.

On to `C[C@@H](C(=O)Nc1ccc(F)cc1)C12CC(NC(=O)c3ccc(F)c(Cl)c3)(C1)C2` [Example 35, 3-chloro-4-fluoro-N-[3-[(1R)-2-(4-fluoroanilino)-1-methyl-2-oxo-ethyl]-1-bicyclo[1.1.1]pentanyl]benzamide], for which the IC50 was found to be 122 nM.

Regarding `Cc1ncc(C(=O)NC23CC([C@H](C)C(=O)Nc4ccc(F)cc4)(C2)C3)cc1F` [Example 65, 5-fluoro-N-[3-[(1S)-2-(4-fluoroanilino)-1-methyl-2-oxo-ethyl]-1-bicyclo[1.1.1]pentanyl]-6-methyl-pyridin-1-ium-3-carboxamide], the IC50 was 28.1 nM.

On to `Cc1ccc(C(=O)NC23CC([C@@H](C)C(=O)Nc4ccc(F)cc4)(C2)C3)cc1F` [Example 41, 3-fluoro-N-[3-[(1R)-2-(4-fluoroanilino)-1-methyl-2-oxo-ethyl]-1-bicyclo[1.1.l]pentanyl]-4-methyl-benzamide], for which the IC50 stood at 405 nM.

Consider `Cc1ccnc(C(=O)NC23CC(C(C)C(=O)Nc4ccc(F)cc4)(C2)C3)c1` (stereo not shown) [Example 118, N-[3-[2-(4-fluoroanilino)-1-methyl-2-oxo-ethyl]-1-bicyclo[1.1.1]pentanyl]-4-methyl-pyridin-1-ium-2-carboxamide], for which the IC50 was 89.4 nM.

As for `Cc1cc(C(=O)NC23CC([C@@H](C)C(=O)Nc4ccc(F)cc4)(C2)C3)ccc1Cl` [Example 37, 4-chloro-N-[3-[(1R)-2-(4-fluoroanilino)-1-methyl-2-oxo-ethyl]-1-bicyclo[1.1.l]pentanyl]-3-methyl-benzamide], the IC50 turned out to be 135 nM.

With `CC(NC(=O)c1ccc(F)cc1)C12CC(NC(=O)c3ccc(Cl)c(Cl)c3)(C1)C2` (single isomer, unassigned) [Example 21, 3,4-Dichloro-N-(3-(1-(4-fluorobenzamido)ethyl)bicyclo [1.1.1]pentan-1-yl) Benzamide], the IC50 worked out at 908 nM.

Regarding `CCc1cc(C(=O)NC23CC(C(C)C(=O)Nc4ccc(F)cc4)(C2)C3)n(C)n1` (stereo not shown) [Example 141, 5-ethyl-N-[3-[2-(4-fluoroanilino)-1-methyl-2-oxo-ethyl]-1-bicyclo[1.1.1]pentanyl]-2-methyl-pyrazole-3-carboxamide], the IC50 is 415 nM.

On to `O=C(NC12CC(C3(C(=O)Nc4ccc(F)c(F)c4)COC3)(C1)C2)c1cccc(Cl)c1` [Example 105, 3-(3-(3-Chlorobenzamido)bicyclo[1.1.1]pentan-1-yl)-N-(3,4-difluorophenyl)oxetane-3-carboxamide], for which the IC50 is 35.8 nM.

For the compound `C[C@@H](C(=O)Nc1ccc(F)cc1)C12CC(NC(=O)c3cccc(Cl)n3)(C1)C2` [Example 33, (R)-6-Chloro-N-(3-(1-((4-fluorophenyl)amino)-1-oxopropan-2-yl)bicyclo[1.1.1]pentan-1-yl)picolinamide], the half-inhibitory concentration (IC50) came to 7180 nM.

Take `C[C@H](C(=O)Nc1ccc(F)cc1)C12CC(NC(=O)c3ccc(Cl)c(Cl)n3)(C1)C2` [Example 149, (S)-5,6-dichloro-N-(3-(1-((4-fluorophenyl)amino)-1-oxopropan-2-yl)bicyclo[1.1.1]pentan-1-yl)picolinamide]: the IC50 is 26.9 nM.

For the compound `C[C@H](C(=O)Nc1cccc(C(F)(F)F)c1)C12CC(NC(=O)c3ccc(Cl)c(Cl)c3)(C1)C2` [Example 99, (S)-3,4-dichloro-N-(3-(1-oxo-1-((3-(trifluoromethyl)phenyl)amino)propan-2-yl)bicyclo[1.1.1]pentan-1-yl)benzamide], the IC50 was 111 nM.

As to `C[C@@H](C(=O)Nc1cnc(F)c(F)c1)C12CC(NC(=O)c3ccc(Cl)c(Cl)c3)(C1)C2` [Example 88, (R)-3,4-Dichloro-N-(3-(1-((5,6-difluoropyridin-3-yl)amino)-1-oxopropan-2-yl)bicyclo[1.1.1]pentan-1-yl)benzamide], the IC50 was 315 nM.

For the compound `C[C@H](C(=O)Nc1ccc(F)cc1)C12CC(NC(=O)c3ccnc(C(F)(F)F)c3)(C1)C2` [Example 66, N-[3-[(1S)-2-(4-fluoroanilino)-1-methyl-2-oxo-ethyl]-1-bicyclo[1.1.1]pentanyl]-2-(trifluoromethyl)pyridin-1-ium-4-carboxamide], the IC50 was 13.1 nM.

`CC(C(=O)Nc1ccc(F)cc1)C12CC(NC(=O)c3ccn4ccccc34)(C1)C2` (stereo not shown) [Example 127, N-[3-[2-(4-fluoroanilino)-1-methyl-2-oxo-ethyl]-1-bicyclo[1.1.1]pentanyl]indolizine-1-carboxamide]: the IC50 was determined as 186 nM.

On to `CC(C(=O)Nc1ccc(F)cc1)C12CC(NC(=O)c3ccccn3)(C1)C2` (stereo not shown) [Example 129, N-[3-[2-(4-fluoroanilino)-1-methyl-2-oxo-ethyl]-1-bicyclo[1.1.1]pentanyl]pyridin-1-ium-2-carboxamide], for which the IC50 was 232 nM.

Turning to `C[C@H](C(=O)Nc1ccc(F)cc1)C12CC(NC(=O)c3cccc(C(F)(F)F)n3)(C1)C2` [Example 152, (S)-N-(3-(1-((4-fluorophenyl)amino)-1-oxopropan-2-yl)bicyclo[1.1.1]pentan-1-yl)-6-(trifluoromethyl)picolinamide], the IC50 turned out to be 34.8 nM.

As to `COc1cc(C(=O)NC23CC([C@H](C)C(=O)Nc4ccc(F)cc4)(C2)C3)ccc1F` [Example 67, 4-fluoro-N-[3-[(1S)-2-(4-fluoroanilino)-1-methyl-2-oxo-ethyl]-1-bicyclo[1.1.1]pentanyl]-3-methoxy-benzamide], the IC50 is 98 nM.

On to `C[C@H](C(=O)Nc1ccc(F)cc1)C12CC(NC(=O)Nc3ccc(F)c(F)c3)(C1)C2` [Example 82, (S)-2-(3-(3-(3,4-difluorophenyl)ureido)bicyclo[1.1.1]pentan-1-yl)-N-(4-fluorophenyl)propanamide], for which the IC50 was 30.3 nM.

Turning to `C[C@H](C(=O)Nc1ccc(F)cc1)C12CC(NC(=O)Nc3cccc(Cl)c3)(C1)C2` [Example 81, (S)-2-(3-(3-(3-chlorophenyl)ureido)bicyclo [1.1.1]pentan-1-yl)-N-(4-fluorophenyl)propanamide], the IC50 is 15.4 nM.

For `O=C(NC1(C23CC(NC(=O)c4ccc(C(F)(F)F)cn4)(C2)C3)CC1)c1ccc(F)cc1` [Example 26, N-(3-(1-(4-fluorobenzamido)cyclopropyl)bicyclo[1.1.1]pentan-1-yl)-5-(trifluoromethyl)picolinamide], the IC50 came to 377 nM.

`C[C@@H](C(=O)Nc1ccc(F)cc1)C12CC(NC(=O)c3cccc(Cl)c3F)(C1)C2` [Example 38, 3-chloro-2-fluoro-N-[3-[(1R)-2-(4-fluoroanilino)-1-methyl-2-oxo-ethyl]-1-bicyclo[1.1.1]pentanyl]benzamide]: the IC50 came out at 2 nM.
